Test results from ChEMBL document CHEMBL1909046, “DrugMatrix in vitro pharmacology data”.

Experiments:
[1] = molecular target: T1, Alpha-2C adrenergic receptor (Homo sapiens, UniProt P18825); assay: DRUGMATRIX: Adrenergic Alpha-2C radioligand binding (ligand: [3H] MK-912); format: cell membranes, Sf9, Membrane; details: sf9
T1 sequence (P18825 whole entry): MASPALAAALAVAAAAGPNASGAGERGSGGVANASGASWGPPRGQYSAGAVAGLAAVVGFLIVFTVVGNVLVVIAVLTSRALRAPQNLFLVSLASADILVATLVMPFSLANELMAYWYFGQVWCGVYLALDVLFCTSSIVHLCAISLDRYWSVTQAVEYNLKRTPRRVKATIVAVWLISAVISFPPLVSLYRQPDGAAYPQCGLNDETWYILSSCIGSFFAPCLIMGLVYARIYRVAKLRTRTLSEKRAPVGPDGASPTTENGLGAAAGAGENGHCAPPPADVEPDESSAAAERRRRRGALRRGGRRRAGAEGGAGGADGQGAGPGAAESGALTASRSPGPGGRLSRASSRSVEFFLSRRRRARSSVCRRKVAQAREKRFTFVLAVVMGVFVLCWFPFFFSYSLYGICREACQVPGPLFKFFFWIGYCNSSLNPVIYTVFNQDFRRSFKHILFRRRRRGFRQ

Acetylcholinesterase = Acetylcholinesterase (Homo sapiens, UniProt P22303); assay: DRUGMATRIX: Acetylcholinesterase enzyme inhibition (substrate: acetylthiocholine); format: cell-based, HEK293; details: hek293; Not Active = under 50% inhibition at 10 µM
Chain of Acetylcholinesterase (P22303 whole entry): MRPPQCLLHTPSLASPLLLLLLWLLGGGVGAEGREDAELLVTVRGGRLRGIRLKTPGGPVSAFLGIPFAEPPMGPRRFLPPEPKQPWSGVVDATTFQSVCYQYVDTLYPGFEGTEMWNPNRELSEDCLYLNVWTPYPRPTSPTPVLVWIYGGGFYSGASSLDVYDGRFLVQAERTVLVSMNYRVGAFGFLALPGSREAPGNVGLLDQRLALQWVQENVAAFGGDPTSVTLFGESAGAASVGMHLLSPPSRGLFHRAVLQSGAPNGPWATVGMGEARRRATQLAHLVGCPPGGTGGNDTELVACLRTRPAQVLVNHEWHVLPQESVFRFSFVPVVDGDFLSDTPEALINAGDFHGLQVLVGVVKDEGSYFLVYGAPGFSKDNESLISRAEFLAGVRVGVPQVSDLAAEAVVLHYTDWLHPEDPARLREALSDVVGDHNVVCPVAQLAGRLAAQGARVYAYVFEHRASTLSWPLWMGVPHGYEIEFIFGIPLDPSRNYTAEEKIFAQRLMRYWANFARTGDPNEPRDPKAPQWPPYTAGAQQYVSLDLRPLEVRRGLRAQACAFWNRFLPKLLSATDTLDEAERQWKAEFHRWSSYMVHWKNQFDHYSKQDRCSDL

[2] = molecular target: Tyrosine-protein kinase Lck (Homo sapiens, UniProt P06239); assay: DRUGMATRIX: Protein Tyrosine Kinase, LCK enzyme inhibition (substrate: Poly(Glu:Tyr)); format: cell-based, Insect cells; details: insect cells; Not Active = under 50% inhibition at 10 µM
Chain of Tyrosine-protein kinase Lck (P06239 whole entry): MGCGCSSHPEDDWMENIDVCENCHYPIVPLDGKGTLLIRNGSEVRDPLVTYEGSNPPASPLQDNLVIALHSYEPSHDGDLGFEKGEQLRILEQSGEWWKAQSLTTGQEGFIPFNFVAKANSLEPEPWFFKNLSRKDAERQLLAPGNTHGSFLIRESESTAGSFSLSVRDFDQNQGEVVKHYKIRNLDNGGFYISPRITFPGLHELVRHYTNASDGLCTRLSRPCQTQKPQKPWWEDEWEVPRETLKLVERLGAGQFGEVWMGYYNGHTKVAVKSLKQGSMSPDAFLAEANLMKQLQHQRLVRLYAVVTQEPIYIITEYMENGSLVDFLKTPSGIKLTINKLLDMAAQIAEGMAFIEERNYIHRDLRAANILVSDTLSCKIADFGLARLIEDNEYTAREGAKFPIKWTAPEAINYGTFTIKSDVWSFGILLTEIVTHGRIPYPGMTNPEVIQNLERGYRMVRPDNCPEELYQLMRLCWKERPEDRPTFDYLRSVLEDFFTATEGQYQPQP

Cathepsin G = molecular target: T2, Cathepsin G (Homo sapiens, UniProt P08311); format: tissue-based; details: neutrophil;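 also: inhibition of Cathepsin G enzyme activity, tested on an AMC-conjugated peptide substrate; in other assays of this panel Not Active means under 50% inhibition at 10 µM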
T2 sequence (P08311 whole entry): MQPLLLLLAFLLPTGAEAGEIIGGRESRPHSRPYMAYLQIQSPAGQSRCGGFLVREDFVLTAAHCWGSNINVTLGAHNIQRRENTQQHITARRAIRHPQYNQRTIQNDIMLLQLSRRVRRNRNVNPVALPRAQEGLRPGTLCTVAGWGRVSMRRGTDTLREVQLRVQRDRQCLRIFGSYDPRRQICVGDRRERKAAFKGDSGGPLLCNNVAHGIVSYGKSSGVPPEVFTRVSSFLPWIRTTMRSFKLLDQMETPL

D(1A) dopamine receptor = D(1A) dopamine receptor (Homo sapiens, UniProt P21728); assay: DRUGMATRIX: Dopamine D1 radioligand binding (ligand: [3H] SCH-23390); format: cell membranes, CHO, Membrane; details: cho; Not Active = under 50% inhibition at 10 µM
Chain of D(1A) dopamine receptor (P21728 whole entry): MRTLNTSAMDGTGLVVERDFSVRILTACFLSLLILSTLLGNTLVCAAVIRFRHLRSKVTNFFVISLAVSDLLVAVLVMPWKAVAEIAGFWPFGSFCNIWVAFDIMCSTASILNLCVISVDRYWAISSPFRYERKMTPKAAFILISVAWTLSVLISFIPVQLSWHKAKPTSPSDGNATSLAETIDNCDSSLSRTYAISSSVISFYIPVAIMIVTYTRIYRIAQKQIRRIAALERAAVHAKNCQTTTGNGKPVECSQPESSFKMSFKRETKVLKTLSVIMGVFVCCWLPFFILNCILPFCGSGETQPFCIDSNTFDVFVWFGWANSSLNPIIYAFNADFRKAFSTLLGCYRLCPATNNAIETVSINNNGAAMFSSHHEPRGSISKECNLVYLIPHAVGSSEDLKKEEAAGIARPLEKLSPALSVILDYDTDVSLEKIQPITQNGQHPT

[3] = molecular target: T3, Cholecystokinin receptor type A (Homo sapiens, UniProt P32238); format: cell membranes, Membrane; details: 1321-n1; also: in other assays of this panel Not Active means under 50% inhibition at 10 µM
T3 sequence (P32238 whole entry): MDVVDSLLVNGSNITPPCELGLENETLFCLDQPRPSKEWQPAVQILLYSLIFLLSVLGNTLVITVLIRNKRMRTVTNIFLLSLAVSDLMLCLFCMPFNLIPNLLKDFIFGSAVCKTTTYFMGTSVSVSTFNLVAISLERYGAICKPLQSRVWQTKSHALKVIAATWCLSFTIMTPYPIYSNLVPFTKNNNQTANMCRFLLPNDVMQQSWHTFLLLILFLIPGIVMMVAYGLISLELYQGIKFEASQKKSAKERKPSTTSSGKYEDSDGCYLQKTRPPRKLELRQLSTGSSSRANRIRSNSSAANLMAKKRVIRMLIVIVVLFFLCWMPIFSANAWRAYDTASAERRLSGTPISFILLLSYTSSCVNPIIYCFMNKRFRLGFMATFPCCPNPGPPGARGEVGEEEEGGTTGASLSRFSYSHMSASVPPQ

C[C@]12CC[C@H]3[C@@H](CCC4=CC(=O)CC[C@@H]43)[C@@H]1CC[C@@H]2O [NANDROLONE]
Not Active: IC50 [1] | IC50 (Acetylcholinesterase) | IC50 [2] | IC50 (Cathepsin G) | IC50 (D(1A) dopamine receptor) | IC50 [3]

C[C@@H]1C/C=C/C=C/C=C/C=C/[C@H](O[C@@H]2O[C@H](C)[C@@H](O)[C@H](N)[C@@H]2O)C[C@@H]2O[C@](O)(C[C@@H](O)C[C@H]3O[C@@H]3/C=C/C(=O)O1)C[C@H](O)[C@H]2C(=O)O [NATAMYCIN]
Not Active: IC50 [1] | IC50 (Acetylcholinesterase) | IC50 [2] | IC50 (Cathepsin G) | IC50 (D(1A) dopamine receptor) | IC50 [3]

NC(=O)c1cccnc1 [NIACINAMIDE]
Not Active: IC50 [1] | IC50 (Acetylcholinesterase) | IC50 [2] | IC50 (Cathepsin G) | IC50 (D(1A) dopamine receptor) | IC50 [3]

CS(=O)(=O)Nc1ccc([N+](=O)[O-])cc1Oc1ccccc1 [NIMESULIDE]
Not Active: IC50 [1] | IC50 (Acetylcholinesterase) | IC50 [2] | IC50 (Cathepsin G) | IC50 (D(1A) dopamine receptor) | IC50 [3]

CN1C(=O)CN=C(c2ccccc2)c2cc([N+](=O)[O-])ccc21 [NIMETAZEPAM]
Not Active: IC50 [1] | IC50 (Acetylcholinesterase) | IC50 [2] | IC50 (Cathepsin G) | IC50 (D(1A) dopamine receptor) | IC50 [3]

COc1ccc2c(c1OC)C(=O)O[C@@H]2[C@H]1c2c(cc3c(c2OC)OCO3)CCN1C [NOSCAPINE]
Not Active: IC50 [1] | IC50 (Acetylcholinesterase) | IC50 [2] | IC50 (Cathepsin G) | IC50 (D(1A) dopamine receptor) | IC50 [3]

C[C@@H]1O[C@@H](O[C@H]2C[C@@H](O)[C@]3(CO)[C@H]4[C@H](O)C[C@]5(C)[C@@H](C6=CC(=O)OC6)CC[C@]5(O)[C@@H]4CC[C@]3(O)C2)[C@H](O)[C@H](O)[C@H]1O [OUABAIN]
Not Active: IC50 [1] | IC50 (Acetylcholinesterase) | IC50 [2] | IC50 (Cathepsin G) | IC50 (D(1A) dopamine receptor) | IC50 [3]

NC(=O)N1c2ccccc2CC(=O)c2ccccc21 [OXCARBAZEPINE]
Not Active: IC50 [1] | IC50 (Acetylcholinesterase) | IC50 [2] | IC50 (Cathepsin G) | IC50 (D(1A) dopamine receptor) | IC50 [3]

COc1ccnc(C[S+]([O-])c2nc3ccc(OC(F)F)cc3[nH]2)c1OC (stereo unspecified) [PANTOPRAZOLE]
Not Active: IC50 [1] | IC50 (Acetylcholinesterase) | IC50 [2] | IC50 (Cathepsin G) | IC50 (D(1A) dopamine receptor) | IC50 [3]

N=C(N)c1ccc(OCCCCCOc2ccc(C(=N)N)cc2)cc1 [PENTAMIDINE]
Not Active: IC50 [1] | IC50 (Acetylcholinesterase) | IC50 [2] | IC50 (Cathepsin G) | IC50 (D(1A) dopamine receptor) | IC50 [3]

NNCCc1ccccc1 [PHENELZINE]
Not Active: IC50 [1] | IC50 (Acetylcholinesterase) | IC50 [2] | IC50 (Cathepsin G) | IC50 (D(1A) dopamine receptor) | IC50 [3]

CCc1ccc(CCOc2ccc(CC3SC(=O)NC3=O)cc2)nc1 (stereo unspecified) [PIOGLITAZONE]
Not Active: IC50 [1] | IC50 (Acetylcholinesterase) | IC50 [2] | IC50 (Cathepsin G) | IC50 (D(1A) dopamine receptor) | IC50 [3]

CCCNC(C)C(=O)Nc1ccccc1C (stereo unspecified) [PRILOCAINE]
Not Active: IC50 [1] | IC50 (Acetylcholinesterase) | IC50 [2] | IC50 (Cathepsin G) | IC50 (D(1A) dopamine receptor) | IC50 [3]

CCN(CC)CCNC(=O)c1ccc(N)cc1 [PROCAINAMIDE]
Not Active: IC50 [1] | IC50 (Acetylcholinesterase) | IC50 [2] | IC50 (Cathepsin G) | IC50 (D(1A) dopamine receptor) | IC50 [3]

C[C@]12C=CC(=O)C=C1CC[C@H]1[C@@H]3C[C@@H](O)[C@](O)(C(=O)CO)[C@@]3(C)C[C@H](O)[C@@]12F [TRIAMCINOLONE]
Not Active: IC50 [1] | IC50 (Acetylcholinesterase) | IC50 [2] | IC50 (Cathepsin G) | IC50 (D(1A) dopamine receptor) | IC50 [3]

CC[C@]1(O)C[C@@H]2CN(CCc3c([nH]c4ccccc34)[C@@](C(=O)OC)(c3cc4c(cc3OC)N(C)[C@H]3[C@@](O)(C(N)=O)[C@H](O)[C@]5(CC)C=CCN6CC[C@]43[C@@H]65)C2)C1 [VINDESINE]
Not Active: IC50 [1] | IC50 (Acetylcholinesterase) | IC50 [2] | IC50 (Cathepsin G) | IC50 (D(1A) dopamine receptor) | IC50 [3]

CCN(C(C)=O)c1cccc(-c2ccnc3c(C#N)cnn23)c1 [ZALEPLON]
Not Active: IC50 [1] | IC50 (Acetylcholinesterase) | IC50 [2] | IC50 (Cathepsin G) | IC50 (D(1A) dopamine receptor) | IC50 [3]

COBALTOUS CHLORIDE
Not Active: IC50 [1] | Ki [1] | IC50 (Acetylcholinesterase) | Ki (Acetylcholinesterase) | IC50 [2] | Ki [2] | IC50 (Cathepsin G) | Ki (Cathepsin G) | IC50 (D(1A) dopamine receptor) | Ki (D(1A) dopamine receptor) | IC50 [3] | Ki [3]

COLISTIN
Not Active: IC50 [1] | Ki [1] | IC50 (Acetylcholinesterase) | Ki (Acetylcholinesterase) | IC50 [2] | Ki [2] | IC50 (Cathepsin G) | Ki (Cathepsin G) | IC50 (D(1A) dopamine receptor) | Ki (D(1A) dopamine receptor) | IC50 [3] | Ki [3]
